In patent publication US6776971B1, “Visible light pH change for activating polymers and other pH dependent reactants” (The United States of America as represented by the …, priority 1998, dated 2004):

Assays:
[1] = Excited-state / phosphorescence lifetimes of candidate jump molecules; format: physicochemical; conditions: for τp (excited-state lifetime, p for phosphorescence): carbon acids, obs = observed; for Lifetimes (mS): triplet, prolonged excited state
Text: During the course of scientific research, the inventor constructed kinetic equations for the 3-level system of FIG. 1. Referring again to FIG. 1, an ideal “jump molecule” will be excited from ground state energy level (S0) to first excited singlet state energy level (S1), and return to the ground state via triplet state energy level (T1). The radiationless transition and radiative decay via phosphorescence will function as a “sink” for the molecules and because of their combined long lifetime, a prolonged molecule excited state will exist. The pH change produced by this excitation will last for the life of this excited state.
For example, the phenones are considered undesirable because the lifetimes of the protonated and non-protonated forms are very different, providing a rapid excited state deactivation channel. An example of this is benzophenone, having an unprotonated lifetime of 100 milliseconds and a protonated lifetime of 62 nanoseconds.
(§1) In Table 1, characteristics of the carbon acids are described. […] In this table, “obs” means “observed” and “c” means “calculated”.

[2] = Acidity constants (pK) in ground, first excited singlet and triplet states; format: physicochemical; conditions: for pK (S0): ground state
Text: The term pK is a shorthand indicating the strength of an acid (pKa) and is defined as the −log10 K in which K is the characteristic equilibrium constant K, represented by:
where [H^+] is the hydrogen ion concentration and [B] is the concentration of the conjugate base. When the amount of one of these constituents is varied, the others will adjust to keep K constant.
as §1
By utilizing visible light, the protonated form BH^+ of anthracene is disassociated into its base (B) and hydrogen ion (H^+) constituents to prompt a pH change from […]. […] The calculation in Table 2 is based on a pK(S0) value for anthracene found in Mackor. E. L., Hofstra, A., and Van Der Waals, J. H., 1958, in an article entitled “The Basicity of Aromatic Hydrocarbons”, Trans. Faraday Soc., vol. 54, 66.

[3] = Excitation wavelength and light absorbance; format: physicochemical; conditions: for Log (eps) / epsilon: 413.1 nm
Text: In Table 1, characteristics of the carbon acids are described. […] In this table, “obs” means “observed” and “c” means “calculated”. Of these, the PAC, anthracene, fits well with certain well established polymers. Referring to FIG. 4, the protonated form of this molecule is confirmed. […] The peak at 424 nm is the only peak within the visible region of the spectrum which decreases with time, and is the signature of anthracene's protonated form. It is this peak that is used to activate the anthracene polymeric actuator with visible light.

[4] = pK(S0), value from Mackor et al 1958; cited from earlier work
[5] = cited from earlier work

With `N#CC1c2ccccc2-c2ccccc21` [9-cyanflourene] the “τp (excited-state lifetime, p for phosphorescence)” value [1] was “obs”, the “pK (S0)” value [2] was 11.4 and the “λ00 (excitation wavelength necessary to initiate a pH change)” value [3] was 300 nm.

In the case of `c1ccc2c(c1)Cc1ccccc1-2` [fluorene], the “τp (excited-state lifetime, p for phosphorescence)” value [1] is reported as 0.35 ms, the “pK (S0)” value [2] is reported as 23.04 and the “λ00 (excitation wavelength necessary to initiate a pH change)” value [3] is reported as 300 nm.

For `c1ccc(C2c3ccccc3-c3ccccc32)cc1` [9-phenylflourene], the “τp (excited-state lifetime, p for phosphorescence)” value [1] was “obs”, the “pK (S0)” value [2] was 18.6 and the “λ00 (excitation wavelength necessary to initiate a pH change)” value [3] was 305 nm.

In the case of `O=C(c1ccccc1)c1ccccc1` [benzophenone], the protonated lifetime [1] is reported as 62 nanoseconds and the unprotonated lifetime [1] is reported as 100 milliseconds.

In the case of `c1ccc2cc3ccccc3cc2c1` [Anthracene, anthracene], the “pK's Ground” value [4] is listed as 3.8, the “Lifetimes nS” value ([1]; singlet excited state) is listed as 10.0 nS and the “Lifetimes (mS)” value [1] is listed as “(10.0) mS”. The “Lifetimes (mS)” value ([1]; listed as anthracene) was 10 mS, the “pK's Singlet” value [2] was 13.6 and the “pK's Triplet” value ([2]; pK(T1)) was 10.3. The “Log (eps)” value [3] was 0.04 and the epsilon [3] was 1.

For `O=S(=O)(O)c1ccc2cc(O)ccc2c1` [2-naphthol-6-sulfonate], the “excited-state pKa value” ([5]; S1 state, UV laser, from measured rate constants) is listed as 1.9, the “ground-state pKa value” [5] is listed as 9.1 and the “change in pKa” value ([5]; ground vs excited state) is listed as 7 unit.

For protonated anthracene [BH+], the “Log (eps)” value [3] was 4.38, the epsilon [3] was 23988 and the “absorbance peak within the visible region” value ([3]; zero-time spectrum, FIG. 4) was 424 nm.
